These results are taken from ChEMBL document CHEMBL3137667, “[Drug-induced liver injury; fourteenth updated edition of the bibliographic database of liver injuries and related drugs]” (Gastroenterol Clin Biol, 2004).

Series [1] is described as follows: Highest frequency of moderate liver toxicity observed during clinical trials, expressed as a percentage. [column '% BIOL' in source]. The following applies: human.
For series [2] the following is noted: human.
Series [3] can be described thus: Times to onset, minimal and maximal, observed in the indexed observations. [column 'DELAI' in source]. The following applies: human.
The conditions of series [4]: human. This is another data set of the same source.
For series [5] the following is noted: human. The source holds these as a separate data set.
The conditions of series [6]: human, serum.
A short description of series [7]: Highest frequency of acute liver toxicity observed during clinical trials, expressed as a percentage. [column '% AIGUE' in source]. The following applies: human.
The conditions of series [8]: human. The source holds these as a separate data set.
The conditions of series [9]: human. This is another data set of the same source.
For series [10] the following is noted: human. The source holds these as a separate data set.
The conditions of series [11]: human, serum, 4383 h.
For series [12] the following is noted: human, serum. The source holds these as a separate data set.
The conditions of series [13]: human. This is another data set of the same source.
The conditions of series [14]: human. The source holds these as a separate data set.
The conditions of series [15]: human. The source holds these as a separate data set.
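Throughout, for Hepatotoxicity (association with vascular disease): count of indexed literature references reporting vascular liver injury in humans, e.g. peliosis hepatitis, hepatic veno-occlusive disease or Budd-Chiari syndrome.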
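Throughout, for Hepatotoxicity (benign tumour): value is a count of indexed literature references citing a benign tumour confirmed by histopathology.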
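Throughout, for Hepatotoxicity (choleostasis): human cholestatic liver injury, shown by histopathology or by peak ALT or AST elevation over alkaline phosphatase ratio below 2, value counts indexed literature reports.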
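Throughout, for Hepatotoxicity (chronic liver disease): chronic liver injury confirmed by histopathology or persistently raised serum aminotransferase activity beyond 6 months, value given as the count of indexed literature references.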
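Throughout, for Hepatotoxicity (cirrhosis): value is a count of indexed literature references reporting cirrhosis confirmed by histopathology.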
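Throughout, for Hepatotoxicity (cytolytic): human cytolytic liver injury, shown by histopathology or by a ratio above 5 of peak ALT or AST elevation to alkaline phosphatase elevation, value counts indexed references.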
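Throughout, for Hepatotoxicity (granulomatous hepatitis): value is a count of indexed literature references reporting granulomatous liver disease confirmed by histopathology.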
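Throughout, for Hepatotoxicity (malignant tumour): malignant tumour confirmed by histopathology, value gives the count of indexed literature references reporting it.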
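Throughout, for Hepatotoxicity (severe hepatitis): human clinical data: severe hepatitis, meaning potentially life-threatening liver failure or clinically observed cases, the value counts how many indexed literature references report it.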
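Throughout, for Hepatotoxicity (steatosis): steatosis confirmed by histopathology, value is the count of indexed references.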

Take `CCN(CC)C(=O)C1(c2ccccc2)CC1CN` (stereo not given): the “Hepatotoxicity (moderate)” value in [1] was determined as 0%; in series [12], 0. Further, in [2], the “Hepatotoxicity (cytolytic)” value was determined as 1. Besides, in series [3], the “Hepatotoxicity (time to onset)” value was 6 months. For the same molecule, the “Hepatotoxicity (malignant tumour)” value in series [4] stood at 0. In addition, the “Hepatotoxicity (benign tumour)” value in [5] came to 0. Further, the results for the “Hepatotoxicity (acute)” value in [6] and in series [7] were 1 and 0%, respectively. The “Hepatotoxicity (choleostasis)” value in series [8] was determined as 0. Moreover, the “Hepatotoxicity (cirrhosis)” value in series [9] is reported as 0. The “Hepatotoxicity (steatosis)” value in series [10] was found to be 0. Moreover, in series [11], the “Hepatotoxicity (chronic liver disease)” value is 0. Besides, the “Hepatotoxicity (granulomatous hepatitis)” value in series [13] turned out to be 0. In addition, the “Hepatotoxicity (severe hepatitis)” value in [14] turned out to be 0. The “Hepatotoxicity (association with vascular disease)” value in [15] is reported as 0.

For the molecule `CC(=O)[C@H]1CC[C@H]2[C@@H]3CC[C@H]4C[C@H](O)CC[C@]4(C)[C@H]3C(=O)C[C@]12C.C[C@]12CC[C@@H](O)C[C@@H]1CC[C@H]1[C@@H]3CC[C@H](C(=O)CO)[C@@]3(C)CC(=O)[C@@H]12`, the entries for the “Hepatotoxicity (moderate)” value in series [1] and in series [12] were 15% and 1, respectively. Also, the “Hepatotoxicity (cytolytic)” value in [2] is 0. Also, the “Hepatotoxicity (time to onset)” value in [3] is recorded as 3 days - 5 days. In addition, the “Hepatotoxicity (malignant tumour)” value in series [4] came out at 0. Moreover, the “Hepatotoxicity (benign tumour)” value in series [5] came to 0. Also, the “Hepatotoxicity (acute)” value in [6] is given as 0; in [7], 0%. In series [8], the “Hepatotoxicity (choleostasis)” value was 0. For the same molecule, the “Hepatotoxicity (cirrhosis)” value in [9] came out at 0. Moreover, the “Hepatotoxicity (steatosis)” value in series [10] is reported as 0. For the same molecule, in [11], the “Hepatotoxicity (chronic liver disease)” value is given as 0. Also, the “Hepatotoxicity (granulomatous hepatitis)” value in series [13] amounted to 0. Also, the “Hepatotoxicity (severe hepatitis)” value in series [14] came to 0. In addition, in series [15], the “Hepatotoxicity (association with vascular disease)” value is recorded as 0.

Consider `CC(C)=CCN1CC[C@]2(C)c3cc(O)ccc3C[C@H]1[C@H]2C` [(+)-PENTAZOCINE], for which the figures for the “Hepatotoxicity (moderate)” value in [1] and in [12] were 0% and 0, respectively. Also, in series [2], the “Hepatotoxicity (cytolytic)” value is 0. The “Hepatotoxicity (time to onset)” value in series [3] is listed as under 3 months. For the same molecule, the “Hepatotoxicity (malignant tumour)” value in series [4] is given as 0. In addition, in [5], the “Hepatotoxicity (benign tumour)” value came out at 0. The “Hepatotoxicity (acute)” value was found to be 2 in [6] and 0% in [7]. The “Hepatotoxicity (choleostasis)” value in series [8] is 0. Further, the “Hepatotoxicity (cirrhosis)” value in series [9] stood at 0. For the same molecule, in [10], the “Hepatotoxicity (steatosis)” value is reported as 0. Further, the “Hepatotoxicity (chronic liver disease)” value in series [11] is reported as 0. Moreover, in [13], the “Hepatotoxicity (granulomatous hepatitis)” value is given as 0. Besides, the “Hepatotoxicity (severe hepatitis)” value in [14] stood at 0. Also, the “Hepatotoxicity (association with vascular disease)” value in series [15] turned out to be 0.

As for `COc1ccc2c(c1)c(CC(=O)OCC(=O)O)c(C)n2C(=O)c1ccc(Cl)cc1` [ACEMETACIN], the “Hepatotoxicity (moderate)” value in series [1] stood at 0%; in series [12] it was 0. Also, the “Hepatotoxicity (cytolytic)” value in series [2] is 0. Also, the “Hepatotoxicity (time to onset)” value in series [3] stood at 12 weeks. Further, the “Hepatotoxicity (malignant tumour)” value in series [4] is 0. The “Hepatotoxicity (benign tumour)” value in series [5] came to 0. Moreover, the “Hepatotoxicity (acute)” value in [6] is given as 1; in series [7] it was 0%. In addition, in [8], the “Hepatotoxicity (choleostasis)” value is recorded as 1. The “Hepatotoxicity (cirrhosis)” value in series [9] stood at 0. In addition, in series [10], the “Hepatotoxicity (steatosis)” value is reported as 0. Besides, the “Hepatotoxicity (chronic liver disease)” value in series [11] amounted to 0. In [13], the “Hepatotoxicity (granulomatous hepatitis)” value is on record as 0. Further, the “Hepatotoxicity (severe hepatitis)” value in [14] is recorded as 0. In addition, the “Hepatotoxicity (association with vascular disease)” value in [15] is reported as 0.

Turning to `CC(=O)Nc1nnc(S(N)(=O)=O)s1` [ACETAZOLAMIDE], the “Hepatotoxicity (moderate)” value in series [1] is given as 0%; in series [12], 0. Besides, the “Hepatotoxicity (cytolytic)” value in series [2] is given as 0. Moreover, the “Hepatotoxicity (time to onset)” value in [3] amounted to 1 month. Further, the “Hepatotoxicity (malignant tumour)” value in [4] was 0. In series [5], the “Hepatotoxicity (benign tumour)” value came to 0. For the same molecule, the results for the “Hepatotoxicity (acute)” value in series [6] and in series [7] were 1 and 0%, respectively. The “Hepatotoxicity (choleostasis)” value in [8] is 1. The “Hepatotoxicity (cirrhosis)” value in series [9] is given as 0. For the same molecule, in series [10], the “Hepatotoxicity (steatosis)” value was 1. Also, the “Hepatotoxicity (chronic liver disease)” value in series [11] was 0. Also, the “Hepatotoxicity (granulomatous hepatitis)” value in series [13] is on record as 0. Further, in [14], the “Hepatotoxicity (severe hepatitis)” value was determined as 1. In series [15], the “Hepatotoxicity (association with vascular disease)” value turned out to be 0.

Regarding `C[S+](CC[C@H](N)C(=O)[O-])C[C@H]1O[C@@H](n2cnc3c(N)ncnc32)[C@H](O)[C@@H]1O` (stereo not given in full) [ADEMETIONINE], the “Hepatotoxicity (moderate)” value in [1] turned out to be 5%; in series [12], 2. In series [2], the “Hepatotoxicity (cytolytic)” value was 1. Moreover, the “Hepatotoxicity (time to onset)” value in series [3] turned out to be 3 days. The “Hepatotoxicity (malignant tumour)” value in [4] was 0. Also, the “Hepatotoxicity (benign tumour)” value in [5] stood at 0. For the same molecule, the “Hepatotoxicity (acute)” value was 1 in [6] and 0% in [7]. The “Hepatotoxicity (choleostasis)” value in series [8] was 0. For the same molecule, in series [9], the “Hepatotoxicity (cirrhosis)” value was 0. Also, the “Hepatotoxicity (steatosis)” value in series [10] is on record as 0. In addition, in series [11], the “Hepatotoxicity (chronic liver disease)” value was 0. Further, in [13], the “Hepatotoxicity (granulomatous hepatitis)” value was 0. In addition, the “Hepatotoxicity (severe hepatitis)” value in [14] turned out to be 0. In addition, in series [15], the “Hepatotoxicity (association with vascular disease)” value came to 0.

`COc1cc2nc(N(C)CCCNC(=O)C3CCCO3)nc(N)c2cc1OC` (stereo not given) [ALFUZOSIN]: the “Hepatotoxicity (moderate)” value in series [1] is 0%; in series [12] it was 0. Moreover, in series [2], the “Hepatotoxicity (cytolytic)” value is 1. Moreover, in series [3], the “Hepatotoxicity (time to onset)” value worked out at 9 months. Further, the “Hepatotoxicity (malignant tumour)” value in [4] is 0. Further, the “Hepatotoxicity (benign tumour)” value in series [5] came out at 0. Besides, the “Hepatotoxicity (acute)” value was 1 in series [6] and 0% in [7]. The “Hepatotoxicity (choleostasis)” value in series [8] came out at 0. For the same molecule, the “Hepatotoxicity (cirrhosis)” value in [9] is 0. The “Hepatotoxicity (steatosis)” value in series [10] is recorded as 0. The “Hepatotoxicity (chronic liver disease)” value in [11] is 0. Besides, in [13], the “Hepatotoxicity (granulomatous hepatitis)” value was 0. In addition, the “Hepatotoxicity (severe hepatitis)” value in series [14] is 0. In addition, the “Hepatotoxicity (association with vascular disease)” value in series [15] is on record as 0.

As for `C=CCNc1nc(NCC=C)nc(N2CCN(C(c3ccc(F)cc3)c3ccc(F)cc3)CC2)n1` [ALMITRINE], the “Hepatotoxicity (moderate)” value stood at 0% in series [1] and 0 in series [12]. Further, in series [2], the “Hepatotoxicity (cytolytic)” value is recorded as 1. Besides, the “Hepatotoxicity (time to onset)” value in series [3] is recorded as 1 week. Moreover, the “Hepatotoxicity (malignant tumour)” value in series [4] turned out to be 0. The “Hepatotoxicity (benign tumour)” value in series [5] came out at 0. In addition, the “Hepatotoxicity (acute)” value came to 1 in series [6] and 0% in series [7]. Besides, the “Hepatotoxicity (choleostasis)” value in [8] was determined as 0. The “Hepatotoxicity (cirrhosis)” value in series [9] is given as 0. In addition, the “Hepatotoxicity (steatosis)” value in [10] is 0. In addition, in series [11], the “Hepatotoxicity (chronic liver disease)” value is 0. The “Hepatotoxicity (granulomatous hepatitis)” value in [13] is 0. The “Hepatotoxicity (severe hepatitis)” value in series [14] stood at 0. For the same molecule, the “Hepatotoxicity (association with vascular disease)” value in series [15] turned out to be 0.

Regarding `Cc1cn([C@H]2C[C@H](F)[C@@H](CO)O2)c(=O)[nH]c1=O` [ALOVUDINE], the “Hepatotoxicity (moderate)” value in series [1] is listed as 0%; in series [12], 0. For the same molecule, the “Hepatotoxicity (cytolytic)” value in series [2] was found to be 0. Also, the “Hepatotoxicity (time to onset)” value in series [3] is recorded as under 3 months. The “Hepatotoxicity (malignant tumour)” value in [4] came to 0. Also, the “Hepatotoxicity (benign tumour)” value in series [5] was 0. For the same molecule, the “Hepatotoxicity (acute)” value was 1 in series [6] and 3.3% in [7]. For the same molecule, the “Hepatotoxicity (choleostasis)” value in series [8] came to 0. Besides, in series [9], the “Hepatotoxicity (cirrhosis)” value was 0. Besides, in series [10], the “Hepatotoxicity (steatosis)” value came to 0. Further, the “Hepatotoxicity (chronic liver disease)” value in series [11] was found to be 0. In addition, the “Hepatotoxicity (granulomatous hepatitis)” value in series [13] is listed as 0. In [14], the “Hepatotoxicity (severe hepatitis)” value stood at 1. The “Hepatotoxicity (association with vascular disease)” value in series [15] was determined as 0.

Regarding `N=C(N)NC(=O)c1nc(Cl)c(N)nc1N` [AMILORIDE], the “Hepatotoxicity (moderate)” value in [1] came out at 1.1%; in series [12], 2. In addition, the “Hepatotoxicity (cytolytic)” value in series [2] is recorded as 0. In series [3], the “Hepatotoxicity (time to onset)” value turned out to be 2 weeks - 6 months. Moreover, the “Hepatotoxicity (malignant tumour)” value in [4] is 0. For the same molecule, the “Hepatotoxicity (benign tumour)” value in [5] is given as 0. The “Hepatotoxicity (acute)” value in [6] is listed as 0; in series [7] it was 0%. The “Hepatotoxicity (choleostasis)” value in series [8] is recorded as 0. In addition, in series [9], the “Hepatotoxicity (cirrhosis)” value is given as 0. Further, the “Hepatotoxicity (steatosis)” value in series [10] is 0. The “Hepatotoxicity (chronic liver disease)” value in series [11] was found to be 0. Also, in [13], the “Hepatotoxicity (granulomatous hepatitis)” value turned out to be 0. In addition, the “Hepatotoxicity (severe hepatitis)” value in series [14] worked out at 0. The “Hepatotoxicity (association with vascular disease)” value in [15] is on record as 0.

`Nc1ccc(C(=O)[O-])cc1.[K+]` [AMINOBENZOATE POTASSIUM]: the “Hepatotoxicity (moderate)” value is listed as 38% in series [1] and 1 in series [12]. In addition, the “Hepatotoxicity (cytolytic)” value in series [2] worked out at 1. In addition, the “Hepatotoxicity (time to onset)” value in [3] turned out to be 2 months. Besides, the “Hepatotoxicity (malignant tumour)” value in [4] was 0. Moreover, the “Hepatotoxicity (benign tumour)” value in series [5] is reported as 0. Also, the “Hepatotoxicity (acute)” value in [6] is on record as 1; in series [7] it was 0%. Further, the “Hepatotoxicity (choleostasis)” value in series [8] was 0. Besides, in series [9], the “Hepatotoxicity (cirrhosis)” value is 0. Also, the “Hepatotoxicity (steatosis)” value in [10] was found to be 0. For the same molecule, the “Hepatotoxicity (chronic liver disease)” value in [11] stood at 0. Moreover, in series [13], the “Hepatotoxicity (granulomatous hepatitis)” value is on record as 0. In addition, the “Hepatotoxicity (severe hepatitis)” value in series [14] came to 0. In [15], the “Hepatotoxicity (association with vascular disease)” value stood at 0.
